Experiments:
Test in all cases: KINOMEscan competition binding
Conditions in all cases: compound 10.0 µM
CaMK1 (human) = CaMK1 (human) (UniProt Q14012)
GSK3A (human) = GSK3A (human) (UniProt P49840)
RPS6KA5 KD1 (human) = RPS6KA5 KD1 (human) (UniProt O75582)
DAPK1 (human) = DAPK1 (human) (UniProt P53355)
CDKL2 (human) = CDKL2 (human) (UniProt Q92772)
DAPK3 (human) = DAPK3 (human) (UniProt O43293)
PRKCH (human) = PRKCH (human) (UniProt P24723)
ROS1 (human) = ROS1 (human) (UniProt P08922)
DDR2 (human) = DDR2 (human) (UniProt Q16832)
IGF1R (human) = IGF1R (human) (UniProt P08069)
SIK2 (human) = SIK2 (human) (UniProt Q9H0K1)
PIP5K1A (human) = PIP5K1A (human) (UniProt Q99755)
LIMK2 (human) = LIMK2 (human) (UniProt P53671)
LIMK2 (human), sequence (P53671 whole entry, looked up): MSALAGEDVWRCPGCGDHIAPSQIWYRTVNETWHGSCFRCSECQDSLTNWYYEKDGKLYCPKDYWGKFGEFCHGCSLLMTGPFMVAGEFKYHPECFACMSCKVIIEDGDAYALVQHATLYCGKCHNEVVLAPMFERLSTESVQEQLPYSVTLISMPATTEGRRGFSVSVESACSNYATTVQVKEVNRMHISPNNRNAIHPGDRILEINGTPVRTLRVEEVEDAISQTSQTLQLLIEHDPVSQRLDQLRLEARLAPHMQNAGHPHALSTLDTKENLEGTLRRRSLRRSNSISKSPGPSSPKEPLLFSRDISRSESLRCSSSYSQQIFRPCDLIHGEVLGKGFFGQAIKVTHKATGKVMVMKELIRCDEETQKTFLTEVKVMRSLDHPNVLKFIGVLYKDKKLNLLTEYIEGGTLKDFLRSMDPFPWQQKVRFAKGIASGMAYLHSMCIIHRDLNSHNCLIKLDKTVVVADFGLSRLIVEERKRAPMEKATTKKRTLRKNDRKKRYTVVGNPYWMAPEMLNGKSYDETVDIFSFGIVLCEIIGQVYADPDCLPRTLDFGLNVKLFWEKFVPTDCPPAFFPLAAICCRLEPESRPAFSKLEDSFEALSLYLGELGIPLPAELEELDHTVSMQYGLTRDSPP

MAPK1 (human) = MAPK1 (human) (UniProt P28482)
MAPK1 (human), sequence (P28482 whole entry, looked up): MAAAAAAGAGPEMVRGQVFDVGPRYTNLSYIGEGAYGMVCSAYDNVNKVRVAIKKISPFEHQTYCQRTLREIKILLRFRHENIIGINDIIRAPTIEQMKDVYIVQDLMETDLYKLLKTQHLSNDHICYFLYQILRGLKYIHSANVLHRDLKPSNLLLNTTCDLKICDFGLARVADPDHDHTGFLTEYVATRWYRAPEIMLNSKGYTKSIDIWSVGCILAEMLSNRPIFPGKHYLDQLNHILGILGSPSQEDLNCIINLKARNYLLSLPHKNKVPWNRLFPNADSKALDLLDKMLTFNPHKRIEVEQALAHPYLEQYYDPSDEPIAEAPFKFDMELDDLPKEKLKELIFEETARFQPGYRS

NUAK2 (human) = NUAK2 (human) (UniProt Q9H093)
GAK (human) = GAK (human) (UniProt O14976)
EPHA2 (human) = EPHA2 (human) (UniProt P29317)
ALK (human) = ALK (human) (UniProt Q9UM73)
PRKX (human) = PRKX (human) (UniProt P51817)
FGR (human) = FGR (human) (UniProt P09769)
CDK11B (human) = CDK11B (human) (UniProt P21127)
CHEK1 (human) = CHEK1 (human) (UniProt O14757)
RPS6KA4 KD1 (human) = RPS6KA4 KD1 (human) (UniProt O75676)
RPS6KA4 KD1 (human), sequence (O75676 whole entry, looked up): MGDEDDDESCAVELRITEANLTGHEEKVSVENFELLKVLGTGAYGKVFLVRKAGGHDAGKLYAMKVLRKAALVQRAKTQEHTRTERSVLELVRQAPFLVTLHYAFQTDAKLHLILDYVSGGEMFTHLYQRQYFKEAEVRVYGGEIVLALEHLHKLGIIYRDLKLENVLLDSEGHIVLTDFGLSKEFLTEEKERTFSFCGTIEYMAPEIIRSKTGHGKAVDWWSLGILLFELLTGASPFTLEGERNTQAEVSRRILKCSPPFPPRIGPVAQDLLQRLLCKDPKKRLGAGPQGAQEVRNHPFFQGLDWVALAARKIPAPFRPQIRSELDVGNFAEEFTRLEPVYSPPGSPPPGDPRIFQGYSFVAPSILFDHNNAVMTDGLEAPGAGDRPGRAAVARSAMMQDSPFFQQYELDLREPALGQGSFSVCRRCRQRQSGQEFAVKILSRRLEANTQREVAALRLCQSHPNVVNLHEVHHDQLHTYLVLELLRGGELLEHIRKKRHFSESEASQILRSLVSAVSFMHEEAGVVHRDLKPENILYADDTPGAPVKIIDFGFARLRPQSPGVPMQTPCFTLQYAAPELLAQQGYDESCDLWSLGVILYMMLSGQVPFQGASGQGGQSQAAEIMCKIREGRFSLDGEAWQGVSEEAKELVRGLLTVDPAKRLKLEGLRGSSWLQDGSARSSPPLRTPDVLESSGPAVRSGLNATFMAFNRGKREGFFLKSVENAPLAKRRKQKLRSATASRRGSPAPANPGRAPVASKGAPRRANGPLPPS

[1] = tested on: KIT (human), P10721 [D816V]
KIT (human), P10721 [D816V], sequence (P10721 whole entry D816V, looked up): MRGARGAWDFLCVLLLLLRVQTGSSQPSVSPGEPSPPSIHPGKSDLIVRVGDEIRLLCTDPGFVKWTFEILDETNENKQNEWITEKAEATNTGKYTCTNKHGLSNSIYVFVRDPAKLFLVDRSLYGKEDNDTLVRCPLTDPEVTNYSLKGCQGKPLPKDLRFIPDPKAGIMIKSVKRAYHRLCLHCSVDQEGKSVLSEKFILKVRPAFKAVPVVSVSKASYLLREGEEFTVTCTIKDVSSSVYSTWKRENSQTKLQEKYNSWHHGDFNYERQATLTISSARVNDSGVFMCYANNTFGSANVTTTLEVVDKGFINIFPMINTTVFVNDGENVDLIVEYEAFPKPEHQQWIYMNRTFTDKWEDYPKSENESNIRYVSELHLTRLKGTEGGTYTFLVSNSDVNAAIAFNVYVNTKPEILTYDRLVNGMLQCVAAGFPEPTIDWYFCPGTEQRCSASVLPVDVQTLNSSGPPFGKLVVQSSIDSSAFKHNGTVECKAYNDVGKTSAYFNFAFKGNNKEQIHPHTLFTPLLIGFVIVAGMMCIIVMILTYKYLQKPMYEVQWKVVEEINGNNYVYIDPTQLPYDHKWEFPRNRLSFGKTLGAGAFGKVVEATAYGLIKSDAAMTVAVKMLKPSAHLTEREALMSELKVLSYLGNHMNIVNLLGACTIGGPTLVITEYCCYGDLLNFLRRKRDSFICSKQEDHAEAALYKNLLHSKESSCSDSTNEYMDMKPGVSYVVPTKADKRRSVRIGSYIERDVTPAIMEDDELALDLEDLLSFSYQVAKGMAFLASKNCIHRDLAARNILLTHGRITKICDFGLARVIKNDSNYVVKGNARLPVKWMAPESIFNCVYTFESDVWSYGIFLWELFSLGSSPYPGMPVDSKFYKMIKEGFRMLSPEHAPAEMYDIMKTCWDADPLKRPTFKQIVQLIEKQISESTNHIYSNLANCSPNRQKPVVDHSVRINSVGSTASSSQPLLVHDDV

EPHB3 (human) = EPHB3 (human) (UniProt P54753)
NEK5 (human) = NEK5 (human) (UniProt Q6P3R8)
NEK7 (human) = NEK7 (human) (UniProt Q8TDX7)
NEK7 (human), sequence (Q8TDX7 whole entry, looked up): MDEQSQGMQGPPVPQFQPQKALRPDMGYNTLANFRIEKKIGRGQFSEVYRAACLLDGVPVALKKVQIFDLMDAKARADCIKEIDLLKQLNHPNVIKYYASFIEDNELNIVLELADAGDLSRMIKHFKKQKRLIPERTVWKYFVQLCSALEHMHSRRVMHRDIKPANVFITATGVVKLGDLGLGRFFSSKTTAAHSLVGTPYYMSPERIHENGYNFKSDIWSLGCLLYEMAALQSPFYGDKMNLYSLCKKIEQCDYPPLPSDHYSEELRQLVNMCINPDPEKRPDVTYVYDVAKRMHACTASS

MAPK4 (human) = MAPK4 (human) (UniProt P31152)
MAPK4 (human), sequence (P31152 whole entry, looked up): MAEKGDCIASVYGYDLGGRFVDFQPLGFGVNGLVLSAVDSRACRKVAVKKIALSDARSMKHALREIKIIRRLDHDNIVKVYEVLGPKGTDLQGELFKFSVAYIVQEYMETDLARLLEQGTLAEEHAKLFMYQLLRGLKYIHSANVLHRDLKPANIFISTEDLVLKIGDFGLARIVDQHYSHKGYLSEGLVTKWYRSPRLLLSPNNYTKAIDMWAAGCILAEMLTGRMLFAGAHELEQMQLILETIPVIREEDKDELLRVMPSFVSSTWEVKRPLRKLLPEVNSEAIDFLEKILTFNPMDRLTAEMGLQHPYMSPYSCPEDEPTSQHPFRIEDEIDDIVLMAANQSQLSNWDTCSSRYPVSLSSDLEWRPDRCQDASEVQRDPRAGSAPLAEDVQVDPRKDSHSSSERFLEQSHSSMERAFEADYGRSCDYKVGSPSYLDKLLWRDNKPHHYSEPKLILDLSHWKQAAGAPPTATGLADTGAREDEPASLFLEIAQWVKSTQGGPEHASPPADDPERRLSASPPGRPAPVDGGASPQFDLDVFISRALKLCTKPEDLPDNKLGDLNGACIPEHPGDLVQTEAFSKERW

PAK3 (human) = PAK3 (human) (UniProt O75914)
ACVR2B (human) = ACVR2B (human) (UniProt Q13705)
MAP2K1 (human) = MAP2K1 (human) (UniProt Q02750)
MYO3A (human) = MYO3A (human) (UniProt Q8NEV4)
NEK6 (human) = NEK6 (human) (UniProt Q9HC98)
RPS6KA3 KD1 (human) = RPS6KA3 KD1 (human) (UniProt P51812)
RPS6KA3 KD1 (human), sequence (P51812 whole entry, looked up): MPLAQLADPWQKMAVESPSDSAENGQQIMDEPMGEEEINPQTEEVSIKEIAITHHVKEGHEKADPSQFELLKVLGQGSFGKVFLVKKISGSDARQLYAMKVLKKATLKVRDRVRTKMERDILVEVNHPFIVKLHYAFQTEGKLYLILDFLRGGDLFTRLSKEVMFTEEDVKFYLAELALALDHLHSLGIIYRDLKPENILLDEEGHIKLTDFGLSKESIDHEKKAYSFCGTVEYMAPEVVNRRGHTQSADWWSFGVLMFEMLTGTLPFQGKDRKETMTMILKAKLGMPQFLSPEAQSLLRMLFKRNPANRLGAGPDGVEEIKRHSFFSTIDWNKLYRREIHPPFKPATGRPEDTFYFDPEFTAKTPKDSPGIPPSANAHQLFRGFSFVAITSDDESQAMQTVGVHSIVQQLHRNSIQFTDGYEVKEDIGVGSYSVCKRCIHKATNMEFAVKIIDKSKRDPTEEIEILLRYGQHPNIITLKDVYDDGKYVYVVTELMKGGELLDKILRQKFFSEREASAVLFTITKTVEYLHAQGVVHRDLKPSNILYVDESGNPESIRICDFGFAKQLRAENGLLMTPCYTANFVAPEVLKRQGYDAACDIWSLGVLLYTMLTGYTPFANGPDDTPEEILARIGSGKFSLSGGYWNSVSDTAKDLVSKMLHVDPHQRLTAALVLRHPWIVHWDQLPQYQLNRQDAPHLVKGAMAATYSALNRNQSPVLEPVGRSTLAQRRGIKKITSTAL

PIK3C2B (human) = PIK3C2B (human) (UniProt O00750)
FER (human) = FER (human) (UniProt P16591)
PRKG1 (human) = PRKG1 (human) (UniProt Q13976)
[2] = tested on: ABL1 (human), P00519 [M351T]
CAMKK2 (human) = CAMKK2 (human) (UniProt Q96RR4)
CAMKK2 (human), sequence (Q96RR4 whole entry, looked up): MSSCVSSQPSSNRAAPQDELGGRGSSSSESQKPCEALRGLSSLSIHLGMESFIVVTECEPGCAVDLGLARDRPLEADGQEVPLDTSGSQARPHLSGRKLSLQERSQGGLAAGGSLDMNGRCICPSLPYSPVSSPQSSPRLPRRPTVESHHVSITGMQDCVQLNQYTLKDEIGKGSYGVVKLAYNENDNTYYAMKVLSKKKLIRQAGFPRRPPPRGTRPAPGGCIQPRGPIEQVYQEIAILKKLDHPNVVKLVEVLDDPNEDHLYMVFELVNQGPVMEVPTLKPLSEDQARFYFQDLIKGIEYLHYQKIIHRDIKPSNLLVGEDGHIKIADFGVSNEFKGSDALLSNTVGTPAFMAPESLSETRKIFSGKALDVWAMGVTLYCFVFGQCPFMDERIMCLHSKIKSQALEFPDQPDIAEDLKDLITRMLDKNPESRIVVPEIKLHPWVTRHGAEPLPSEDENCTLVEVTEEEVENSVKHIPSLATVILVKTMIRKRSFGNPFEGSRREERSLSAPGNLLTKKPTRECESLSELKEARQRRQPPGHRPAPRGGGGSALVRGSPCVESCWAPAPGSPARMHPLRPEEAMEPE

MAP3K5 (human) = MAP3K5 (human) (UniProt Q99683)

SMILES	kinase still bound, per cent of control (CaMK1 (human)) [%]	kinase still bound, per cent of control (GSK3A (human)) [%]	kinase still bound, per cent of control (RPS6KA5 KD1 (human)) [%]	kinase still bound, per cent of control (DAPK1 (human)) [%]	kinase still bound, per cent of control (CDKL2 (human)) [%]	kinase still bound, per cent of control (DAPK3 (human)) [%]	kinase still bound, per cent of control (PRKCH (human)) [%]	kinase still bound, per cent of control (ROS1 (human)) [%]	kinase still bound, per cent of control (DDR2 (human)) [%]	kinase still bound, per cent of control (IGF1R (human)) [%]	kinase still bound, per cent of control (SIK2 (human)) [%]	kinase still bound, per cent of control (PIP5K1A (human)) [%]	kinase still bound, per cent of control (LIMK2 (human)) [%]	kinase still bound, per cent of control (MAPK1 (human)) [%]	kinase still bound, per cent of control (NUAK2 (human)) [%]	kinase still bound, per cent of control (GAK (human)) [%]	kinase still bound, per cent of control (EPHA2 (human)) [%]	kinase still bound, per cent of control (ALK (human)) [%]	kinase still bound, per cent of control (PRKX (human)) [%]	kinase still bound, per cent of control (FGR (human)) [%]	other results
CCN1CCN(Cc2ccc(Nc3ncc4c(n3)N(C)c3ccccc3C(=O)N4C)cc2C(F)(F)F)CC1	78	100	100	65	80	79	100	11	50	100	24	5	85	77	6.6	12	83	64	100	26	kinase still bound, per cent of control (CDK11B (human)): 99%; kinase still bound, per cent of control (CHEK1 (human)): 57%; kinase still bound, per cent of control (RPS6KA4 KD1 (human)): 100%; kinase still bound, per cent of control [1]: 46%; kinase still bound, per cent of control (EPHB3 (human)): 80%; kinase still bound, per cent of control (NEK5 (human)): 77%; kinase still bound, per cent of control (NEK7 (human)): 88%; kinase still bound, per cent of control (MAPK4 (human)): 100%; kinase still bound, per cent of control (PAK3 (human)): 9.4%; kinase still bound, per cent of control (ACVR2B (human)): 29%; kinase still bound, per cent of control (MAP2K1 (human)): 86%; kinase still bound, per cent of control (MYO3A (human)): 88%; kinase still bound, per cent of control (NEK6 (human)): 64%; kinase still bound, per cent of control (RPS6KA3 KD1 (human)): 28%; kinase still bound, per cent of control (PIK3C2B (human)): 71%; kinase still bound, per cent of control (FER (human)): 100%; kinase still bound, per cent of control (PRKG1 (human)): 100%; kinase still bound, per cent of control [2]: 0.65%; kinase still bound, per cent of control (CAMKK2 (human)): 47%; kinase still bound, per cent of control (MAP3K5 (human)): 100%
Nc1ccc(-c2ccc3ncc4ccc(=O)n(-c5cccc(C(F)(F)F)c5)c4c3c2)cn1	82	100	100	91	91	81	99	82	99	100	73	78	89	100	46	56	99	100	100	100	kinase still bound, per cent of control (CDK11B (human)): 100%; kinase still bound, per cent of control (CHEK1 (human)): 86%; kinase still bound, per cent of control (RPS6KA4 KD1 (human)): 82%; kinase still bound, per cent of control [1]: 61%; kinase still bound, per cent of control (EPHB3 (human)): 100%; kinase still bound, per cent of control (NEK5 (human)): 94%; kinase still bound, per cent of control (NEK7 (human)): 82%; kinase still bound, per cent of control (MAPK4 (human)): 75%; kinase still bound, per cent of control (PAK3 (human)): 100%; kinase still bound, per cent of control (ACVR2B (human)): 97%; kinase still bound, per cent of control (MAP2K1 (human)): 100%; kinase still bound, per cent of control (MYO3A (human)): 100%; kinase still bound, per cent of control (NEK6 (human)): 92%; kinase still bound, per cent of control (RPS6KA3 KD1 (human)): 80%; kinase still bound, per cent of control (PIK3C2B (human)): 37%; kinase still bound, per cent of control (FER (human)): 95%; kinase still bound, per cent of control (PRKG1 (human)): 83%; kinase still bound, per cent of control [2]: 100%; kinase still bound, per cent of control (CAMKK2 (human)): 99%; kinase still bound, per cent of control (MAP3K5 (human)): 100%
CCOc1cc2ncc(C#N)c(Nc3ccc(OCc4ccccn4)c(Cl)c3)c2cc1NC(=O)/C=C/CN(C)C	88	97	100	98	100	91	100	96	100	100	58	100	100	100	8.8	10	94	100	100	40	kinase still bound, per cent of control (CDK11B (human)): 97%; kinase still bound, per cent of control (CHEK1 (human)): 65%; kinase still bound, per cent of control (RPS6KA4 KD1 (human)): 100%; kinase still bound, per cent of control [1]: 70%; kinase still bound, per cent of control (EPHB3 (human)): 100%; kinase still bound, per cent of control (NEK5 (human)): 100%; kinase still bound, per cent of control (NEK7 (human)): 100%; kinase still bound, per cent of control (MAPK4 (human)): 100%; kinase still bound, per cent of control (PAK3 (human)): 100%; kinase still bound, per cent of control (ACVR2B (human)): 100%; kinase still bound, per cent of control (MAP2K1 (human)): 0.4%; kinase still bound, per cent of control (MYO3A (human)): 98%; kinase still bound, per cent of control (NEK6 (human)): 88%; kinase still bound, per cent of control (RPS6KA3 KD1 (human)): 89%; kinase still bound, per cent of control (PIK3C2B (human)): 100%; kinase still bound, per cent of control (FER (human)): 37%; kinase still bound, per cent of control (PRKG1 (human)): 94%; kinase still bound, per cent of control [2]: 100%; kinase still bound, per cent of control (CAMKK2 (human)): 89%; kinase still bound, per cent of control (MAP3K5 (human)): 100%

Reference: the kinase profiling compilation of Christmann-Franck et al. (2016)
